Data reported in US11629171B2, “Beta-hairpin peptidomimetics” (POLYPHOR AG, priority 2017, dated 2023).
≈ marks a conversion by molar mass, not a printed value. Where a SMILES comes first, the peptide text is derived from it. Bridges are numbered along the chain shown (N, C = ends). Roman numbers before positions name the chains, in order. [ ]: non-standard residue; d: D form. The star is where a group is joined. Thr(ol) = C[C@@H](O)[C@H](N)CO; Pen = CC(C)(S)[C@H](N)C(=O)O; Tle = CC(C)(C)[C@H](N)C(=O)O; Hiv = CC(C)[C@H](O)C(=O)O; dDab = NCC[C@@H](N)C(=O)O; hSer = N[C@@H](CCO)C(=O)O; Dab = NCC[C@H](N)C(=O)O; Dap = NC[C@H](N)C(=O)O; NHCH2CH2OH = OCCN*

Columns and labels:
Assay type in all cases: cell-based
[1] = system: Acinetobacter baumannii 872842; conditions: 872842
Summary of the method: (§1)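 Standard CLSI microdilution testing: bacterial suspensions standardized against 0.5 McFarland to about 10^6 CFU/mL in MH-II broth meet serially halved peptide concentrations in broth containing 0.002% polysorbate 80; incubation lasts 18-20 h at 35° C before the MIC is scored.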

[2] = system: Acinetobacter baumannii DSM 30008; conditions: DSM 30008
Summary of the method: as §1

[3] = system: Enterobacter cloacae 848840; conditions: 848840
Summary of the method: as §1

Escherichia coli 926415 = conditions: 926415
Summary of the method: as §1

[4] = system: Escherichia coli ATCC 25922; conditions: ATCC 25922
Summary of the method: as §1

[5] = system: Klebsiella pneumoniae 968733; conditions: 968733
Summary of the method: as §1

[6] = system: Klebsiella pneumoniae SSI #3010; conditions: SSI #3010
Summary of the method: as §1

[7] = system: Pseudomonas aeruginosa ATCC 27853; conditions: ATCC 27853
Summary of the method: as §1

[8] = system: human red blood cells (hRBC); assay: Hemolysis; conditions: red cells of human, 1 h, 200
Summary of the method: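 Read-out is supernatant absorbance at 540 nm, normalised to full lysis by 2% Triton X-100 and zero lysis by PBS with 10% water. Peptides (200 μg/mL) were exposed to 20% v/v washed human erythrocytes at 37° C for 1 h under shaking.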

SMILES	MIC [1] [µg/mL]	MIC [2] [µg/mL]	MIC [3] [µg/mL]	MIC (Escherichia coli 926415) [µg/mL]	MIC [4] [µg/mL]	MIC [5] [µg/mL]	MIC [6] [µg/mL]	MIC [7] [µg/mL]	Acinetobacter baumannii DSM 30008 MIC [2] [µg/mL]	Escherichia coli ATCC 25922 MIC [4] [µg/mL]	Klebsiella pneumoniae SSI #3010 MIC [6] [µg/mL]	Pseudomonas aeruginosa ATCC 27853 MIC [7] [µg/mL]	Hemolysis at 200 μg/mL [8] [%]
CC(C)C[C@@H]1NC(=O)[C@@H](CC(C)C)NC(=O)[C@H](CCN)NC(=O)[C@@H](NC(=O)[C@H](CN)NC(=O)[C@@H](NC(=O)[C@H](CCN)NC(=O)CC[C@@H]2NC(=O)[C@H](CCN)NC(=O)[C@H](Cc3ccc(O)cc3)NC(=O)[C@@H](NC(=O)[C@@H](O)C(C)C)CSSC(C)(C)[C@@H](C(=O)N[C@@H](CO)C(N)=O)NC(=O)[C@H](C(C)C)NC(=O)[C@H](CO)NC(=O)[C@H](Cc3c[nH]c4ccccc34)NC(=O)[C@H](CO)NC(=O)[C@@H](CCN)NC2=O)[C@@H](C)O)CCNC(=O)[C@H]([C@@H](C)O)NC(=O)[C@H](CCN)NC(=O)[C@H](CCN)NC1=O [Ex. 301] (I: H-[Hiv]CY[Dab]E[dDab]SWSV[Pen]S-NH2 / II: [Dab]T[Dap][Dab][Dab][dL]L[Dab][Dab]T; disulfide I:2-I:11; amide I:5-II:N; lactam II:4-II:C)	0.25 (≈ 0.105 µM)		0.125 (≈ 0.0524 µM)	0.125 (≈ 0.0524 µM)		0.5 (≈ 0.21 µM)			0.0625	0.0625	0.125	0.125	2
CC(C)C[C@@H]1NC(=O)[C@@H](CC(C)C)NC(=O)[C@H](CCN)NC(=O)[C@@H](NC(=O)[C@H](CCN)NC(=O)[C@@H](NC(=O)[C@H](CCN)NC(=O)CC[C@@H]2NC(=O)[C@H](CCN)NC(=O)[C@H](C(C)C)NC(=O)[C@@H](NC(=O)[C@@H](O)C(C)C)CSSC[C@@H](C(=O)N[C@H](CO)[C@@H](C)O)NC(=O)[C@H](Cc3ccc(O)cc3)NC(=O)[C@H](CO)NC(=O)[C@H](Cc3c[nH]c4ccccc34)NC(=O)[C@H](CCO)NC(=O)[C@@H](CCN)NC2=O)[C@@H](C)O)CCNC(=O)[C@H]([C@@H](C)O)NC(=O)[C@H](CCN)NC(=O)[C@H](CCN)NC1=O [Ex. 89] (I: H-[Hiv]CV[Dab]E[dDab][hSer]WSYC[Thr(ol)] / II: [Dab]T[Dab][Dab][Dab][dL]L[Dab][Dab]T; disulfide I:2-I:11; amide I:5-II:N; lactam II:4-II:C)	0.5 (≈ 0.209 µM)	0.0625 (≈ 0.0262 µM)	0.5 (≈ 0.209 µM)	0.5 (≈ 0.209 µM)	0.125 (≈ 0.0524 µM)	1 (≈ 0.419 µM)	0.125 (≈ 0.0524 µM)	0.25 (≈ 0.105 µM)					<1
CC(=O)N[C@H](C(=O)N[C@H]1CSSC[C@@H](C(=O)N[C@@H](CO)C(N)=O)NC(=O)[C@H](C(C)C)NC(=O)[C@H](CO)NC(=O)[C@H](Cc2c[nH]c3ccccc23)NC(=O)[C@H](CO)NC(=O)[C@@H](CCN)NC(=O)[C@H](CCC(=O)N[C@@H](CCN)C(=O)N[C@@H](CCO)C(=O)N[C@@H](CN)C(=O)N[C@H]2CCNC(=O)[C@H]([C@@H](C)O)NC(=O)[C@H](CCN)NC(=O)[C@H](CCN)NC(=O)[C@H](CC(C)C)NC(=O)[C@@H](CC(C)C)NC(=O)[C@H](CCN)NC2=O)NC(=O)[C@H](CCN)NC(=O)[C@H](Cc2ccc(O)cc2)NC1=O)C(C)C [Ex. 308] (I: Ac-VCY[Dab]E[dDab]SWSVCS-NH2 / II: [Dab][hSer][Dap][Dab][Dab][dL]L[Dab][Dab]T; disulfide I:2-I:11; amide I:5-II:N; lactam II:4-II:C)	0.5 (≈ 0.208 µM)		1 (≈ 0.417 µM)	0.5 (≈ 0.208 µM)		1 (≈ 0.417 µM)			0.125	0.0625	0.25	0.125	<1

Further lines, with some results ahead:

MIC [1] [µg/mL]	MIC [2] [µg/mL]	MIC [3] [µg/mL]	MIC (Escherichia coli 926415) [µg/mL]	MIC [4] [µg/mL]	MIC [5] [µg/mL]	MIC [6] [µg/mL]	MIC [7] [µg/mL]	Acinetobacter baumannii DSM 30008 MIC [2] [µg/mL]	Escherichia coli ATCC 25922 MIC [4] [µg/mL]	Klebsiella pneumoniae SSI #3010 MIC [6] [µg/mL]	Pseudomonas aeruginosa ATCC 27853 MIC [7] [µg/mL]	SMILES	Hemolysis at 200 μg/mL [8] [%]
0.125 (≈ 0.0503 µM)	0.0625 (≈ 0.0252 µM)	0.25 (≈ 0.101 µM)	0.25 (≈ 0.101 µM)	0.0625 (≈ 0.0252 µM)	0.25 (≈ 0.101 µM)	0.125 (≈ 0.0503 µM)	0.125 (≈ 0.0503 µM)					CC(=O)N[C@H](C(=O)N[C@H]1CSSC[C@@H](C(=O)N[C@@H](Cc2ccc(O)cc2)C(=O)NCCO)NC(=O)[C@H](C(C)(C)C)NC(=O)[C@H](CO)NC(=O)[C@H](Cc2c[nH]c3ccccc23)NC(=O)[C@H](CCO)NC(=O)[C@@H](CCN)NC(=O)[C@H](CCC(=O)N[C@@H](CCN)C(=O)N[C@H](C(=O)N[C@@H](CCN)C(=O)N[C@H]2CCNC(=O)[C@H]([C@@H](C)O)NC(=O)[C@H](CCN)NC(=O)[C@H](CCN)NC(=O)[C@H](CC(C)C)NC(=O)[C@@H](CC(C)C)NC(=O)[C@H](CCN)NC2=O)[C@@H](C)O)NC(=O)[C@H](CCN)NC(=O)[C@H](CO)NC1=O)C(C)C [Ex. 71] (I: Ac-VCS[Dab]E[dDab][hSer]WS[Tle]CY-NHCH2CH2OH / II: [Dab]T[Dab][Dab][Dab][dL]L[Dab][Dab]T; disulfide I:2-I:11; amide I:5-II:N; lactam II:4-II:C)	1
0.125 (≈ 0.0512 µM)	0.03125 (≈ 0.0128 µM)	0.125 (≈ 0.0512 µM)	0.125 (≈ 0.0512 µM)	0.03125 (≈ 0.0128 µM)	0.5 (≈ 0.205 µM)	0.125 (≈ 0.0512 µM)	0.125 (≈ 0.0512 µM)					CC(=O)N[C@H](C(=O)N[C@@H](CN)C(=O)N[C@@H](Cc1ccc(O)cc1)C(=O)N[C@H]1CSSC[C@@H](C(=O)N[C@H](C(=O)N[C@@H](CC(=O)O)C(=O)N[C@H](C(N)=O)[C@@H](C)O)C(C)(C)C)NC(=O)[C@H](Cc2c[nH]c3ccccc23)NC(=O)[C@H](CO)NC(=O)[C@@H](CCN)NC(=O)[C@H](CCC(=O)N[C@@H](CCN)C(=O)N[C@H](C(=O)N[C@@H](CN)C(=O)N[C@H]2CCNC(=O)[C@H]([C@@H](C)O)NC(=O)[C@H](CCN)NC(=O)[C@H](CCN)NC(=O)[C@H](CC(C)C)NC(=O)[C@@H](CC(C)C)NC(=O)[C@H](CCN)NC2=O)[C@@H](C)O)NC1=O)C(C)C [Ex. 227] (I: Ac-V[Dap]YCE[dDab]SWC[Tle]DT-NH2 / II: [Dab]T[Dap][Dab][Dab][dL]L[Dab][Dab]T; disulfide I:4-I:9; amide I:5-II:N; lactam II:4-II:C)	<1
0.125 (≈ 0.0521 µM)		0.125 (≈ 0.0521 µM)	0.25 (≈ 0.104 µM)		0.25 (≈ 0.104 µM)			0.0625	0.0625	0.0625	0.125	CC(=O)N[C@H](C(=O)N[C@H]1CSSC[C@@H](C(=O)N[C@@H](CO)C(N)=O)NC(=O)[C@H](C(C)C)NC(=O)[C@H](CO)NC(=O)[C@H](Cc2c[nH]c3ccccc23)NC(=O)[C@H](CCC(=O)N[C@@H](CCN)C(=O)N[C@H](C(=O)N[C@@H](CN)C(=O)N[C@H]2CCNC(=O)[C@H]([C@@H](C)O)NC(=O)[C@H](CCN)NC(=O)[C@H](CCN)NC(=O)[C@H](CC(C)C)NC(=O)[C@@H](CC(C)C)NC(=O)[C@H](CCN)NC2=O)[C@@H](C)O)NC(=O)[C@@H](CCN)NC(=O)[C@H](CCN)NC(=O)[C@H](CO)NC(=O)[C@H](Cc2ccc(O)cc2)NC1=O)C(C)C [Ex. 356] (I: Ac-VCYS[Dab][dDab]EWSVCS-NH2 / II: [Dab]T[Dap][Dab][Dab][dL]L[Dab][Dab]T; disulfide I:2-I:11; amide I:7-II:N; lactam II:4-II:C)	2
0.0625 (≈ 0.0262 µM)		0.0625 (≈ 0.0262 µM)	0.25 (≈ 0.105 µM)		0.125 (≈ 0.0524 µM)			0.03125	0.03125	0.0625	0.125	CC(=O)N[C@H](C(=O)N[C@H]1CSSC[C@@H](C(=O)N[C@@H](CO)C(N)=O)NC(=O)[C@H](C(C)C)NC(=O)[C@H](CO)NC(=O)[C@H](Cc2c[nH]c3ccccc23)NC(=O)[C@H](CO)NC(=O)[C@@H](CCN)NC(=O)[C@H](CCC(=O)N[C@@H](CCN)C(=O)N[C@H](C(=O)N[C@@H](CN)C(=O)N[C@H]2CCNC(=O)[C@H]([C@@H](C)O)NC(=O)[C@H](CCN)NC(=O)[C@H](CCN)NC(=O)[C@H](C(C)C)NC(=O)[C@@H](CC(C)C)NC(=O)[C@H](CCN)NC2=O)[C@@H](C)O)NC(=O)[C@H](CCN)NC(=O)[C@H](Cc2ccc(O)cc2)NC1=O)C(C)C [Ex. 312] (I: Ac-VCY[Dab]E[dDab]SWSVCS-NH2 / II: [Dab]T[Dap][Dab][Dab][dL]V[Dab][Dab]T; disulfide I:2-I:11; amide I:5-II:N; lactam II:4-II:C)	<1
